As usually defined, the IC50 is the concentration at which inhibition is half-maximal. For orientation: half-life means the time in which the quantity being followed falls by half.

Each structure is given as a SMILES string. Active and inactive are the calls of the source. The rule behind the calls is not given here. Bounds are passed on as bounds.

This is an account of results in ChEMBL document CHEMBL4130518, “Apratoxin S10, a Dual Inhibitor of Angiogenesis and Cancer Cell Growth To Treat Highly Vascularized Tumors” (ACS Med Chem Lett, 2017).

In data set [1] the test system is HUVEC. The experiment in a line: Antiangiogenic activity in HUVEC assessed as inhibition of tube like structures formation at 10 pM to 1 uM after 14 hrs by matrigel based inverted microscopy. It is filed as functional, cell-based. To be noted: Homo sapiens.
Data set [2] deals with A498. The experiment in a line: Antiproliferative activity against human A498 cells after 48 hrs by MTT assay. To be noted: A498, 48 h. The format is functional, cell-based.
Data set [3] has as its system NCI-H727. The data set can be described thus: Antiproliferative activity against human NCI-H727 cells after 48 hrs by MTT assay. It is filed as functional, cell-based. To be noted: NCI-H727, 48 h. For orientation: Tetrazolium dyes change colour on reduction, which living cells bring about.
Data set [4] has as its system Huh-7. The data set can be described thus: Antiproliferative activity against human HuH7 cells after 48 hrs by MTT assay. To be noted: Huh-7, 48 h. It is filed as functional, cell-based.
The next data set relates to HCT-116. The experiment in a line: Antiproliferative activity against human HCT116 cells after 48 hrs by MTT assay. It is filed as functional, cell-based. To be noted: HCT-116, 48 h.
Data set [5] can be described thus: Half life in KCl/HCl buffer at pH 2.32 after 24 hrs by HPLC-MS analysis. The format is physicochemical.
Data set [6] deals with A498. The data set can be described thus: Inhibition of VEGF-A secretion in human A498 cells at 10 pM to 1 uM after 24 hrs by AlphaLISA based immuno assay. The format is functional, cell-based.
Data set [7] deals with NCI-H727. The experiment in a line: Downregulation of VEGFR2 in human NCI-H727 cells at 10 pM to 1 uM after 24 hrs by AlphaLISA based immuno assay. It is filed as functional, cell-based. A general note: Bead proximity is the source of the signal in Alpha formats.
Data set [8] has as its system Huh-7. The experiment in a line: Inhibition of VEGF-A secretion in human HuH7 cells at 10 pM to 1 uM after 24 hrs by AlphaLISA based immuno assay. The format is functional, cell-based.
Data set [9] deals with HUVEC. The experiment in a line: Cytotoxicity against HUVEC assessed as decrease in cell viability after 48 hrs by MTT assay. To be noted: Homo sapiens. It is filed as functional, cell-based.
Data set [10] concerns HUVEC. The data set can be described thus: Antiangiogenic activity in HUVEC assessed as decrease in number of junctions at 10 pM after 14 hrs by branch point counting analysis. To be noted: Homo sapiens. The format is functional, cell-based.
Data set [11] concerns NCI-H727. The experiment in a line: Inhibition of IL-6 secretion in human NCI-H727 cells at 10 pM to 1 uM after 24 hrs by AlphaLISA based immuno assay. It is filed as functional, cell-based.
Data set [12] has as its system NCI-H727. The experiment in a line: Inhibition of VEGF-A secretion in human NCI-H727 cells at 10 pM to 1 uM after 24 hrs by AlphaLISA based immuno assay. The format is functional, cell-based.
The test system of data set [13] is HUVEC. The experiment in a line: Antiangiogenic activity in HUVEC assessed as diminishing of branch points at 10 pM after 14 hrs by inverted microscopy. It is filed as functional, cell-based. To be noted: Homo sapiens.
The subject of data set [14] is A498. The data set can be described thus: Inhibition of IL-6 secretion in human A498 cells at 10 pM to 1 uM after 24 hrs by AlphaLISA based immuno assay. The format is functional, cell-based.
Data set [15] deals with HUVEC. The data set can be described thus: Downregulation of VEGFR2 expression level in HUVEC at >= 10 nM after 14 hrs by immunoblot analysis. To be noted: Homo sapiens. The format is functional, cell-based. Background: A western blot detects proteins with antibodies after separation by electrophoresis.
Data set [16] deals with A498. The data set can be described thus: Downregulation of MET in human A498 cells at 10 pM to 1 uM after 24 hrs by AlphaLISA based immuno assay. The format is functional, cell-based.
In data set [17] the test system is Huh-7. The experiment in a line: Downregulation of FGFR4 in human HuH7 cells at 10 pM to 1 uM after 24 hrs by AlphaLISA based immuno assay. It is filed as functional, cell-based.
Data set [18] concerns Huh-7. The experiment in a line: Inhibition of IL-6 secretion in human HuH7 cells at 10 pM to 1 uM after 24 hrs by AlphaLISA based immuno assay. It is filed as functional, cell-based.
In data set [19] the test system is NCI-H727. The experiment in a line: Downregulation of IGF1Rbeta in human NCI-H727 cells at 10 pM to 1 uM after 24 hrs by AlphaLISA based immuno assay. It is filed as functional, cell-based.
The test system of data set [20] is HUVEC. The data set can be described thus: Antiangiogenic activity in HUVEC assessed as inhibition of tube like structures formation after 14 hrs by matrigel based inverted microscopy. The format is functional, cell-based. To be noted: Homo sapiens.
In data set [21] the test system is A498. The data set can be described thus: Downregulation of EGFR in human A498 cells at 10 pM to 1 uM after 24 hrs by AlphaLISA based immuno assay. The format is functional, cell-based.
In data set [22] the test system is HUVEC. The experiment in a line: Antiangiogenic activity in HUVEC assessed as inhibition of tube like structures formation at < 100 nM after 14 hrs by matrigel based inverted microscopy. It is filed as functional, cell-based. To be noted: Homo sapiens.
Data set [23] deals with HUVEC. The data set can be described thus: Antiangiogenic activity in HUVEC assessed as inhibition of tube like structures formation at 100 nM to 1 uM after 14 hrs by matrigel based inverted microscopy. The format is functional, cell-based. To be noted: Homo sapiens.

`C#Cc1cccc(Nc2ncnc3cc(OCCOC)c(OCCOC)cc23)c1` [ERLOTINIB]: the inhibition result in the data set on HUVEC [1] is “inactive”. Further, the half-inhibitory concentration (IC50) is 12.5 µM in the data set with A498 [2], more than 6.24 µM in the data set on NCI-H727 [3] and 25 µM in the data set on Huh-7 [4].
`CC[C@H](C)[C@H]1C(=O)N2CCC[C@H]2C(=O)O[C@H](C(C)(C)C)C[C@@H](C)C[C@@H](O)C(C)(C)C2=N[C@@H](CCC(=O)N[C@@H](Cc3ccc(OC)cc3)C(=O)N(C)[C@@H](C)C(=O)N1C)CS2`: the IC50 in the data set on HCT-116 is 0.00199 µM. This compound yielded a half-life in [5] of more than 24 h.
Regarding `CC[C@H](C)[C@H]1C(=O)N2CCC[C@H]2C(=O)O[C@H](C(C)(C)C)C[C@@H](C)C[C@@H](O)[C@H](C)C2=N[C@@H](CCC(=O)N[C@@H](Cc3ccc(OC)cc3)C(=O)N(C)[C@@H](C)C(=O)N1C)CS2`, in [5], the half-life was more than 24 h.
Regarding `CC[C@H](C)[C@H]1C(=O)N2CCC[C@H]2C(=O)O[C@H](C(C)(C)C)C[C@@H](C)C[C@@H](O)C(C)(C)C2=N[C@H](CCC(=O)N[C@@H](Cc3ccc(OC)cc3)C(=O)N(C)[C@@H](C)C(=O)N1C)CS2`, the half-maximal inhibitory concentration (IC50) in the data set with A498 [2] worked out at 0.00335 µM; in the data set with HCT-116, 0.00147 µM; in the data set on NCI-H727 [3], 0.00255 µM; in the data set with Huh-7 [4], 0.00083 µM. The compound also returned a half-life in [5] of more than 24 h.
Compound `CC[C@H](C)[C@H]1C(=O)N2CCC[C@H]2C(=O)O[C@H](C(C)(C)C)C[C@@H](C)C[C@@H](O)[C@H](C)C2=N[C@H](CCC(=O)N[C@@H](Cc3ccc(OC)cc3)C(=O)N(C)[C@@H](C)C(=O)N1C)CS2` showed a half-life in [5] of more than 24 h.
For `COc1cc2nccc(Oc3ccc(NC(=O)C4(C(=O)Nc5ccc(F)cc5)CC4)cc3)c2cc1OC` [CABOZANTINIB], the inhibition entry in the data set on HUVEC [1] is “inactive”. Also, the IC50 in the data set on A498 [2] is 8.46 µM; in the data set with NCI-H727 [3], 14 µM; in the data set with Huh-7 [4] it was 4.35 µM.
As to `CC[C@H](C)[C@@H]1C(=O)N2CCC[C@@H]2C(=O)O[C@H](C(C)(C)C)C[C@@H](C)C[C@@H](O)C(C)(C)C2=N[C@H](CCC(=O)N[C@@H](Cc3ccc(OC)cc3)C(=O)N(C)[C@@H](C)C(=O)N1C)CS2`, the inhibition result in the data set with A498 [6], with Huh-7 [8], in the data set with NCI-H727 [11], with NCI-H727 [12], in the data set on A498 [14] and in the data set on Huh-7 [18] was “Active” throughout. Moreover, the result with NCI-H727 [7], in the data set on HUVEC [9], in the data set with HUVEC [10], in the data set with HUVEC [13], in the data set with HUVEC [15] and in the data set on A498 [16] was Active. Moreover, the result in the data set on Huh-7 [17], in the data set with NCI-H727 [19] and with A498 [21] was Active. In addition, the inhibition result with HUVEC [20] is “Dose-dependent effect”.
As to `CCN(CC)CCNC(=O)c1c(C)[nH]c(/C=C2\C(=O)Nc3ccc(F)cc32)c1C` [SUNITINIB], the IC50 was determined as 7.98 µM in the data set with A498 [2], 10.1 µM in the data set on NCI-H727 [3] and 4.71 µM in the data set on Huh-7 [4]. Moreover, in the data set with HUVEC [22], the inhibition result is “inactive”. Besides, the inhibition entry in the data set with HUVEC [23] is “Active”.
